Values quoted from earlier work as cited in patent US20240343692A1 (priority 2021, published 2024).
Read-outs that look alike come from different tables or passages of the source. Marks after values point to notes of the source that are not given here.

Legend:
Serotonin 5-HT1A = molecular target: T1, Serotonin 5-HT1A (Homo sapiens, UniProt P08908); conditions: read-out: inhibition constants Ki, Serotonin 5-HT1A; data from ref. 36; cited from earlier work
T1 sequence (P08908 1-422): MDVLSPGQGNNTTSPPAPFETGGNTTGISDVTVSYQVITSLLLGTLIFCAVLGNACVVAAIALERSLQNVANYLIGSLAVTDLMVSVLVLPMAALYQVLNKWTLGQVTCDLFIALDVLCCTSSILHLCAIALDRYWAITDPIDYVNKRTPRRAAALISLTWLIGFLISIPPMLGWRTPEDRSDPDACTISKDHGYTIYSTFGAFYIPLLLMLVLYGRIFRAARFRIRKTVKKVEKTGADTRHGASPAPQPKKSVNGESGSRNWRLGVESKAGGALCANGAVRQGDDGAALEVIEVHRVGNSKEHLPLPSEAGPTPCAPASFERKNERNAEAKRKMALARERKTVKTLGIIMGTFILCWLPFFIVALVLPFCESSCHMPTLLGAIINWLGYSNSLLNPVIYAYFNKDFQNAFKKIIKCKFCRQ

Sigma-1 = Sigma-1 (Homo sapiens, UniProt Q99720)
Chain of Sigma-1 (Q99720 whole entry): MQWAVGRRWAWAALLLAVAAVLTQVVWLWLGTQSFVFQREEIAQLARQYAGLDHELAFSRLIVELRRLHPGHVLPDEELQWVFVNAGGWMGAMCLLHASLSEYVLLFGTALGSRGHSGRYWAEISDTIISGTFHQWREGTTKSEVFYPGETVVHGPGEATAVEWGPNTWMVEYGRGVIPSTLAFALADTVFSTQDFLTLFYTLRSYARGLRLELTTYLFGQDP

Serotonin 5-HT2A [1] = molecular target: T2, Serotonin 5-HT2A (Homo sapiens, UniProt P28223); conditions: 10 μM; data from ref. 34; cited from earlier work
T2 sequence (P28223 whole entry, looked up): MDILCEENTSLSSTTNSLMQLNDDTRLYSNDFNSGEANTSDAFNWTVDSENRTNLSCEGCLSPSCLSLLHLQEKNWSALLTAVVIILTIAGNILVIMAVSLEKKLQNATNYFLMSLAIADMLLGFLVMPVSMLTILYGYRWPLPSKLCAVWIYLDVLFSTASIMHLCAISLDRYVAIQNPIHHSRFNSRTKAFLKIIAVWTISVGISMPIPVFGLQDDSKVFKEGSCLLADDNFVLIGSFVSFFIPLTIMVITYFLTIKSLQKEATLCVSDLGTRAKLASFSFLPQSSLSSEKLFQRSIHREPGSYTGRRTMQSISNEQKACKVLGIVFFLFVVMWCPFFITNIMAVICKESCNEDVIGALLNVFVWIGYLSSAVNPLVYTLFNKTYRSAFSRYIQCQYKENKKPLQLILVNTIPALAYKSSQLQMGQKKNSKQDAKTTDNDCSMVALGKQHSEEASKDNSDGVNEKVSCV

GABAA = conditions: 10 μM; rat receptor data; data from ref. 34; cited from earlier work
Dopamine D1 = Dopamine D1 (Homo sapiens, UniProt P21728); conditions: 10 μM; data from ref. 34; cited from earlier work
Chain of Dopamine D1 (P21728 whole entry): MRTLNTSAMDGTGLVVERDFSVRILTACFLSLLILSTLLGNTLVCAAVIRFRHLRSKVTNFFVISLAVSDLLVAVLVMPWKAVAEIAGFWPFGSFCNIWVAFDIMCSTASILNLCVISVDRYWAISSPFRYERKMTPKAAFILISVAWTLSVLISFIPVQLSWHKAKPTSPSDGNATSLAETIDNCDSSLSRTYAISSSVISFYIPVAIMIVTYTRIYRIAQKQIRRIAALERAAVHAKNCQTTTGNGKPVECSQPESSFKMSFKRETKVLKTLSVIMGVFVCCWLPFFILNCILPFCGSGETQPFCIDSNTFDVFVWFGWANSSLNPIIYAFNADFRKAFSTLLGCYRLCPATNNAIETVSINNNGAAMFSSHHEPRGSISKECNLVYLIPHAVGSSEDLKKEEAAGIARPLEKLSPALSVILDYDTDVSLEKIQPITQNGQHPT

Muscarinic M2 = molecular target: T3, Muscarinic M2 (Homo sapiens, UniProt P08172); conditions: 10 μM; data from ref. 34; cited from earlier work
T3 sequence (P08172 1-466): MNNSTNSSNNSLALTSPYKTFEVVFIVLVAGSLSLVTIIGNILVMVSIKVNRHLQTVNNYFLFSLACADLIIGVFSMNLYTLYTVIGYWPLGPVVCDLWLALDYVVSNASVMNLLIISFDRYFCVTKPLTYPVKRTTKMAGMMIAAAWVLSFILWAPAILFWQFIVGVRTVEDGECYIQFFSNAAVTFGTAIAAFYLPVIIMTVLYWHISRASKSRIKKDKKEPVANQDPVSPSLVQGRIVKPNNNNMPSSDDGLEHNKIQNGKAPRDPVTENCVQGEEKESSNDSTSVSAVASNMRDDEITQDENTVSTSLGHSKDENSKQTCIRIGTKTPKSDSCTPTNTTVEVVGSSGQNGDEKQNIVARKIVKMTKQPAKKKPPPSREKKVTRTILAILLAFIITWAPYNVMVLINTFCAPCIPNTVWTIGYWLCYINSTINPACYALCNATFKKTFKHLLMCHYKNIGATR

Dopamine D3 = Dopamine D3 (Homo sapiens, UniProt P35462); conditions: 10 μM; data from ref. 34; cited from earlier work
Chain of Dopamine D3 (P35462 whole entry): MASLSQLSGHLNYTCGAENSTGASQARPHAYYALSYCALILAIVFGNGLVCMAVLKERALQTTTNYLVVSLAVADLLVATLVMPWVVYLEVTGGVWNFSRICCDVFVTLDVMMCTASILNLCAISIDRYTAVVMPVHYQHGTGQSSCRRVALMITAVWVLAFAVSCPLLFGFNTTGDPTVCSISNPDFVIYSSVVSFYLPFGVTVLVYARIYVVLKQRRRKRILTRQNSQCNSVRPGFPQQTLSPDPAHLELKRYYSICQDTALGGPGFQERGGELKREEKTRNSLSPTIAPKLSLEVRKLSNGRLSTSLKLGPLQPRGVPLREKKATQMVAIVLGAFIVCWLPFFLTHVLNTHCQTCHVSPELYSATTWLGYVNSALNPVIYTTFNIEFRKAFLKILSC

Dopamine D2L = Dopamine D2L (Homo sapiens, UniProt P14416); conditions: 10 μM; data from ref. 34; cited from earlier work
Chain of Dopamine D2L (P14416 whole entry): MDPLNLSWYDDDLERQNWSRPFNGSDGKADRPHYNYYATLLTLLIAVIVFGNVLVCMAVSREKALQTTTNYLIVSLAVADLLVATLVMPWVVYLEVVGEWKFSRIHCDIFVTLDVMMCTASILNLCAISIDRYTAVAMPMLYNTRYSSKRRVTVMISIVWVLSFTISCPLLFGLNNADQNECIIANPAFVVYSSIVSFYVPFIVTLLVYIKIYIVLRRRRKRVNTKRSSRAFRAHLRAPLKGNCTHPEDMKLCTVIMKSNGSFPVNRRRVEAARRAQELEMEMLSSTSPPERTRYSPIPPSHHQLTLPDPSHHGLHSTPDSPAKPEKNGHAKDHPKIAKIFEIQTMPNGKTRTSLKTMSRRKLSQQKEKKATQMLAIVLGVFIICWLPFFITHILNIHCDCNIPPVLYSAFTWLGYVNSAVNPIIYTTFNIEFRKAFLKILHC

Opiate κ = Opiate κ (Homo sapiens, UniProt P41145); conditions: 10 μM; data from ref. 34; cited from earlier work
Chain of Opiate κ (P41145 whole entry): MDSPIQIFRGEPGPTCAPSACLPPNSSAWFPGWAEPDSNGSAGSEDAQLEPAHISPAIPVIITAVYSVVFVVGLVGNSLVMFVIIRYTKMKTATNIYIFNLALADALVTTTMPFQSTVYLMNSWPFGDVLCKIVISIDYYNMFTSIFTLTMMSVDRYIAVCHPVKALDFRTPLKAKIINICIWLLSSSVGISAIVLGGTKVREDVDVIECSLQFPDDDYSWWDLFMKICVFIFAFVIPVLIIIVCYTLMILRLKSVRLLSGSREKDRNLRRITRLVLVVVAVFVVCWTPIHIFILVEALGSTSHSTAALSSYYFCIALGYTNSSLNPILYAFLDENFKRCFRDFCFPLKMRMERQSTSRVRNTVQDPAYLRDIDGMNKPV

Muscarinic M5 = molecular target: T4, Muscarinic M5 (Homo sapiens, UniProt P08912); conditions: 10 μM; data from ref. 34; cited from earlier work
T4 sequence (P08912 1-532): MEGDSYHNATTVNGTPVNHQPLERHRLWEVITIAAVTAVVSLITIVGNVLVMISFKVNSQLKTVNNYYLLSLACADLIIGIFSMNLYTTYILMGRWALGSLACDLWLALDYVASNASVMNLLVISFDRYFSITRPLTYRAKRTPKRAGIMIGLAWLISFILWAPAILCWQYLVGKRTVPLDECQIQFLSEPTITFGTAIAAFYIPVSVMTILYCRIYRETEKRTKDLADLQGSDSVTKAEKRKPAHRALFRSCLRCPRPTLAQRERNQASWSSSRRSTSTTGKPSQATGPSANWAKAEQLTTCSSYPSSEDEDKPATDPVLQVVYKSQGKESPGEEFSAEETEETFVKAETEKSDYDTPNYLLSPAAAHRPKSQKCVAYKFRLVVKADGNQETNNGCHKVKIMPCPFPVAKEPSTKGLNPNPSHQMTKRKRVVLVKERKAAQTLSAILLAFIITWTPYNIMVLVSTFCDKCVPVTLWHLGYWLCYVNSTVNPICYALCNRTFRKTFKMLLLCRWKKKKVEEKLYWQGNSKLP

Adrenergic α1 = conditions: 10 μM; rat receptor data; data from ref. 35; cited from earlier work
[2] = molecular target: Nicotinic Acetylcholine α4β2 (Homo sapiens, UniProt P17787+P43681); conditions: 10 μM; data from ref. 34; cited from earlier work
Chain of Nicotinic Acetylcholine α4β2 (P43681 29-627 limits assumed): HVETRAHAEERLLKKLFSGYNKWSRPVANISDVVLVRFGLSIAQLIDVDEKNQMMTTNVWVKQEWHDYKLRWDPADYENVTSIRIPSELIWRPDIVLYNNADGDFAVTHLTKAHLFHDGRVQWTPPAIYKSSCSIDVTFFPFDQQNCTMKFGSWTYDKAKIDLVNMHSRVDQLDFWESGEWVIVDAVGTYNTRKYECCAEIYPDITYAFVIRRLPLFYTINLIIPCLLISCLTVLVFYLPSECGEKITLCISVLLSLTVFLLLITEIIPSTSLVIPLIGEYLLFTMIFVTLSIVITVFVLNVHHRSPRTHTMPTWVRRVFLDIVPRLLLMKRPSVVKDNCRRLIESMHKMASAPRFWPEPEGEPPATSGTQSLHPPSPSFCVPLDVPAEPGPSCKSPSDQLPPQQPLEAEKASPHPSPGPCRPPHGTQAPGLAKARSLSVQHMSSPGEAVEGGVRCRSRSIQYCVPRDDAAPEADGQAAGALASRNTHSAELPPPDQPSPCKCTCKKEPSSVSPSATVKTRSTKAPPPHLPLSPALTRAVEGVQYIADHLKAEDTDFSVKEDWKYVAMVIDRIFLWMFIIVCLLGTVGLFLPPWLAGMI
Chain of Nicotinic Acetylcholine α4β2 (P17787 26-502): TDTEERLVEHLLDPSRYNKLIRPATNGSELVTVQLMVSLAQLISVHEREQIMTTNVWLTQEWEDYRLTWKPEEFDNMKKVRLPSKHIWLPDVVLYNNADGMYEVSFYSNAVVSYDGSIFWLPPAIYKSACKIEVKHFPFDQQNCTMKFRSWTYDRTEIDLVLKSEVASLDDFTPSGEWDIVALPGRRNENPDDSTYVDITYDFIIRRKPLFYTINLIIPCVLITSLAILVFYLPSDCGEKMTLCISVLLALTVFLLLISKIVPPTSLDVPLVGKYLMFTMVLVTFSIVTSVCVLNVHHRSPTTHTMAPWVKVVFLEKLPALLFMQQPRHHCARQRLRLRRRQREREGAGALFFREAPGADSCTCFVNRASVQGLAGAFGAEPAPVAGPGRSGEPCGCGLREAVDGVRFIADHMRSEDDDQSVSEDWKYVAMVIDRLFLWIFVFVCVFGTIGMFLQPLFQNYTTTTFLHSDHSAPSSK

Serotonin 5-HT2A [3] = molecular target: T2, Serotonin 5-HT2A; conditions: data from ref. 36; read-out: activation potency EC50, Serotonin 5-HT2A; cited from earlier work

CN(C)CCc1c[nH]c2cccc(O)c12 [Psilocin]
Ki (Serotonin 5-HT1A): 123 nM | Ki (Sigma-1; read-out: inhibition constants Ki, Sigma-1; data from ref. 37; cited from earlier work): > 10000 nM

CCN(CC)C(=O)[C@@H]1C=C2c3cccc4[nH]cc(c34)C[C@H]2N(C)C1 [D-LSD, D-lysergic acid diethylamide]
Percent Inhibition of Specific Binding of a Radioligand Standard, Serotonin 5-HT2A (Serotonin 5-HT2A [1]): 93 % inh | Percent Inhibition of Specific Binding of a Radioligand Standard, GABAA (GABAA): 0 % inh | Percent Inhibition of Specific Binding of a Radioligand Standard, Dopamine D1 (Dopamine D1): 93 % inh | Percent Inhibition of Specific Binding of a Radioligand Standard, Muscarinic M2 (Muscarinic M2): 2 % inh | Percent Inhibition of Specific Binding of a Radioligand Standard, Dopamine D3 (Dopamine D3): 78 % inh | Percent Inhibition of Specific Binding of a Radioligand Standard, Dopamine D2L (Dopamine D2L): 85 % inh | Percent Inhibition of Specific Binding of a Radioligand Standard, Opiate κ (Opiate κ): 29 % inh | Percent Inhibition of Specific Binding of a Radioligand Standard, Muscarinic M5 (Muscarinic M5): 15 % inh | Percent Inhibition of Specific Binding of a Radioligand Standard, Adrenergic α1 (Adrenergic α1): 100^d % inh | Percent Inhibition of Specific Binding of a Radioligand Standard, Nicotinic Acetylcholine α4β2 [2]: 0 % inh

CN(C)CCc1c[nH]c2ccccc12 [DMT]
EC50 (Serotonin 5-HT2A [3]): 76 nM | Ki (Sigma-1; data from ref. 37; read-out: inhibition constants Ki, Sigma-1; cited from earlier work): 5200 nM
